Data set [1] in a line: Antitumor activity against human […] cells xenografted in athymic nude mice assessed as reduction of tumor size at 20 mg/kg, qd. It is filed as functional. Also noted: scale not given: the % may be the effect or the level left.
The test system of data set [2] is MDA-MB-435. Briefly: Antitumor activity against human MDA-MB-435 cells xenografted in nude mouse assessed as inhibition of tumor growth at 20 to 50 mg/kg, qd for 5 weeks. The settings on record: dose mg/kg 20-50. The format is functional. (In xenograft studies the graft and the host belong to different species.)
Data set [3] can be described thus: Metabolic stability in rat Hepatocyte assessed as compound remaining at 1 umol/L after 2 hrs by RP-HPLC analysis. The note with it: hepatocytes, read-out: Stability. It is filed as ADME, cell-based.
Data set [4] can be described thus: Metabolic stability in human Hepatocyte assessed as compound remaining at 1 umol/L after 2 hrs by RP-HPLC analysis. It is filed as ADME, cell-based. The settings on record: hepatocytes, read-out: Stability.
Data set [5] deals with T1, Hypoxia-inducible factor 1-alpha (Homo sapiens, UniProt Q16665). Briefly: Inhibition of HIF-1alpha in human HCT116 cells under hypoxia condition by HRE-luciferase reporter gene assay. It is filed as cell-based, HCT-116. A general note: A reporter such as luciferase makes a cellular process visible.
T1 sequence (Q16665 whole entry): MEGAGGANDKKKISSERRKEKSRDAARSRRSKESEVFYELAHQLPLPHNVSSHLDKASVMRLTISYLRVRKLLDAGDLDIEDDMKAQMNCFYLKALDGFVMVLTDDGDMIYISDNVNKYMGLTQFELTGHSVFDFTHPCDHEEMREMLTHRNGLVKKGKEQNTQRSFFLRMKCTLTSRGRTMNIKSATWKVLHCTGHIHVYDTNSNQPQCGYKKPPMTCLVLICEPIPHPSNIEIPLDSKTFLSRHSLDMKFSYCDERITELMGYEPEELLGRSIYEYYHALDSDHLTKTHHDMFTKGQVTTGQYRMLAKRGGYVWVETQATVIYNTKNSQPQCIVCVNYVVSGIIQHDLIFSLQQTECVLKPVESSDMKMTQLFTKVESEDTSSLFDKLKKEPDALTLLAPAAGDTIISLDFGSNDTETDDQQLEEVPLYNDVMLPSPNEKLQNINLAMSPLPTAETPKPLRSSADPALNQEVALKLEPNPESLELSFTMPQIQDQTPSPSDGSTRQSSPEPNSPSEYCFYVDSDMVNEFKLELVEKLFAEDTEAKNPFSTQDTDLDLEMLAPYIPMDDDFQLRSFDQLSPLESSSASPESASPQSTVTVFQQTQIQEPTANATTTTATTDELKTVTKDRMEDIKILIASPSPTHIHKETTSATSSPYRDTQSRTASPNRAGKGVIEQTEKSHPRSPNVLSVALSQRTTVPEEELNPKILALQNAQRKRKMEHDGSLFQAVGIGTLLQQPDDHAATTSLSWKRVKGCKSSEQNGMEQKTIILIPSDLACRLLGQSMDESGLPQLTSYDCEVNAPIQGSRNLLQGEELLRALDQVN
Data set [6] is described as follows: Apparent permeability across human Caco2 cells at 20 uM. The settings on record: Caco-2. The format is ADME, cell-based. For orientation: Caco-2 monolayers are a common model of the intestinal barrier.
A short description of data set [7]: Antitumor activity against human Hep3B cells xenografted in nude mouse assessed as reduction in tumor size at 10 to 30 mg/kg/day, ip for 2 weeks (reference value: 900 mm3). It is filed as functional, Hep 3B2. The settings on record: route intraperitoneal.
Data set [8] can be described thus: Apparent permeability across human Caco2 cells at 10 uM. The format is ADME, cell-based. The settings on record: Caco-2.
The target of data set [9] is T1, Hypoxia-inducible factor 1-alpha. In words: Inhibition of HIF-1alpha in human LN229 cells under hypoxia condition by HRE-luciferase reporter gene assay. It is filed as cell-based.
The target is the same in data set [10]. In words: Inhibition of HIF-1alpha-mediated VEGF secretion in human Hep3b cells by ELISA. The format is cell-based.
Data set [11] shares this target. Briefly: Inhibition of HIF-1alpha-mediated VEGF expression in human Hep3b cells by luciferase reporter gene assay. The format is cell-based.
For data set [12] the target is unchanged. In words: Inhibition of HIF-1alpha transcriptional co-activator p300 interaction.
The subject of data set [13] is Nucleic Acid. Briefly: Binding affinity to HIF-1 5'-CGTG-3' DNA sequence in human U251 cells assessed as inhibition of HRE-mediated reporter activation. It is filed as cell-based. The settings on record: u-251.
The subject of data set [14] is HCT-116. Briefly: Antitumor activity against human HCT116 cells xenografted in mouse assessed as inhibition of tumor growth at 30 mg/kg, iv. It is filed as functional. The settings on record: read-out: TGI.
A short description of data set [15]: Apparent permeability across human Caco2 cells at 5 uM. The settings on record: Caco-2. The format is ADME, cell-based.
For data set [16], the system named is Mus musculus. Briefly: Toxicity in human HCT116 cells xenografted mouse assessed as decrease in body weight at 30 mg/kg, iv. The settings on record: in vivo. Set-up: dose 30 mg/kg, route intravenous; scale not given: the % may be the effect or the level left. The format is organism-based, HCT-116.

Each structure is given as a SMILES string.

On to `COC(=O)c1ccc(O)c(NC(=O)COc2ccc(C34CC5CC(CC(C5)C3)C4)cc2)c1`, for which the Activity in data set [1] is 53.6%.

Turning to `COC(=O)c1ccc2[nH]c(COc3ccc(C45CC6CC(CC(C6)C4)C5)cc3)nc2c1`, the TGI (usually how far tumour growth fell short of that in controls) in data set [2] turned out to be 58.6%. For the molecule `COc1cc2c(cc1O)CC[C@@H]1[C@@H]2CC[C@]2(C)[C@@H](O)CC[C@@H]12` [2-METHOXYESTRADIOL], the remaining at 2 h, 1 µM in data set [3] and in [4] was over 65% in each case. Take `Cc1ccc(Cn2nc(-c3nc4ccc(-c5ccc(Cl)cc5)cc4[nH]3)cc2C)cc1`: the IC50 (commonly the concentration needed to halve the response being measured) in [5] amounted to 0.003 µM. With `CNC(=C[N+](=O)[O-])NCCSCc1ccc(CN(C)C)o1` [RANITIDINE], in [6], the apparent permeability (Papp) (usually a coefficient for how fast a substance crosses the barrier) at 20 µM worked out at 0.6 ×10⁻⁶ cm/s. For `Cn1c(CO)ccc1-c1nn(Cc2ccccc2)c2ccccc12`, the Activity in data set [7] was determined as 400 mm3. On to `COCCc1ccc(OCC(O)CNC(C)C)cc1` (centres undefined) [METOPROLOL], for which the Papp at 10 µM in data set [8] was found to be 27.2 ×10⁻⁶ cm/s. With `COc1cc2c(cc1C(N)=O)CC[C@@H]1[C@@H]2CC[C@]2(C)CCC[C@@H]12`, the remaining at 2 h, 1 µM in data set [3] and in data set [4] was over 65% in each case. The molecule `COc1c(C(C2CCCCC2)n2cnc3c(Cl)cccc32)ccc2c1C=CC(C)(C)O2` (centres undefined) displayed an IC50 in [9] of 7.5 µM. On to `CN1C(=O)[C@@]23C[C@]4([C@]56C[C@@]78SS[C@@](CO)(C(=O)N7[C@H]5Nc5ccccc56)N(C)C8=O)c5ccccc5N[C@@H]4N2C(=O)[C@]1(CO)SS3` [CHAETOCIN], for which the IC50 is 0.1 µM in data set [10], 0.04 µM in data set [11] and 12.5 µM in data set [12]. As for `OCc1ccc(-c2nn(Cc3ccccc3)c3ccccc23)o1`, the Activity in [7] is on record as 400 mm3. As to `CS[C@H]1SC[C@H]2C(=O)N(C)[C@@H](C(C)C)C(=O)OC[C@@H](NC(=O)c3cnc4ccccc4n3)C(=O)N[C@@H](C)C(=O)N(C)[C@@H]1C(=O)N(C)[C@@H](C(C)C)C(=O)OC[C@@H](NC(=O)c1cnc3ccccc3n1)C(=O)N[C@@H](C)C(=O)N2C` [ECHINOMYCIN], in data set [13], the EC50 (usually the concentration needed to bring the measured effect to its halfway point) worked out at 0.0012 µM. With `O=C(COc1ccc(C23CC4CC(CC(C4)C2)C3)cc1)Nc1cc(C(=O)NCCCn2ccnc2)ccn1`, the inhibition in vivo at 30 mg/kg in data set [14] came to 51.3%. Besides, the Papp at 5 µM in [15] is 22.9 ×10⁻⁶ cm/s. The Activity in data set [16] is given as 92.7%.

The values are drawn from ChEMBL document CHEMBL2203096, “Recent advances in hypoxia-inducible factor (HIF)-1 inhibitors” (Eur J Med Chem, 2012).
